# Patent publication US20250009716A1, “NOVEL INHIBITORS OF CLAUDIN-1 FOR THERAPEUTIC INTERVENTIONS” (BOARD OF REGENTS OF THE UNIVERSITY OF NEBRASKA, priority 2021, published 2025)
# Entries after “also recorded” stand apart in the source; their conditions may differ.
# What was measured:
# [1] = Metabolic stability in mouse liver S9 fractions; format: in vitro ADME
# Experimental: To determine the in vivo characteristics of this drug, a pharmacokinetic and tissue distribution study on 16 was performed. Following a single i.v. dose of 16 (1 mg/kg) in mice (C57B/16; n=5), serial blood samples were obtained at 0.08, 0.25, 0.75, 2, 4, 6, 8 and 24 hours after the injection and plasma samples were analyzed for 16 concentrations. Pharmacokinetic parameter values were obtained from the plasma concentration-time data using standard non-compartmental methods (WinNonlin, PharSight Corp). […] To assess the tissue distribution of 16, mice were sacrificed at 2, 8 and 24 hours after the i.v. administration of the drug. Measurable concentrations of 16 were detected in all studied tissues at 2, 8, and 24 h. […] Next, metabolic stability studies of 16 was evaluated using mouse liver S9 fractions for the in vitro assessment of phase I and II metabolism. […] Testosterone, 7-HC and diclofenac were used as positive controls, ensuring proper incubation conditions were maintained. […]
# (§1) Metabolic stability and reaction phenotyping: The in vitro metabolic stability of studies was determined using mice and human liver microsomes and S9 fractions (XenoTech, LLC, Lenexa, KS, USA) following standard protocols (33, 35, 36). […] Drug concentrations were determined using LC-MS/MS. […] UGTs are analyzed in Corning® Supersomes™ if incubation of HLMs with UDPGA also results in metabolite formation.
# [2] = tested on: Claudin-1 deficient HCT116 cells; assay: Resistance to anoikis in claudin-1 deficient cells (negative control); format: cell-based
# Source text: The crystal structure of claudin-1 is unknown. Therefore, an in-silico protein folding program, YASARA, was used to identify an effective claudin-1 inhibitor. The resultant 3D-structure was then modeled using Molegro Virtual Docker (MVD) software program. These in-silico analyses identified putative cavities in the claudin-1 protein that can be targeted by small molecule inhibitors. Next, a 100K library of small molecules was screened in silico using the MVD. The top 10 inhibitors that bound to the Site #3 (targeting near c-terminal domain; the most accessible pocket; FIG. 2A) with the best binding energies were selected as hits and used for further testing. Screening of these inhibitors named Inihibitor-1 (1-1) to Inhibitor-10 (I-10) was done using SW480claudin-1, SW620 and control cells. Claudin-1 deficient HCT116 cells (WT-APC) or SW620shRNAcld-1 were used as negative controls. Resistance to anoikis and cell invasion was used as biological end-points in testing these inhibitors. […]
# [3] = tested on: HCT116CLDN2 cells; assay: Cell viability, specificity for CLDN1; format: cell-based; conditions: cells overexpressing another tight junction protein
# Experimental: (§2) SW480^claudin-1, IEC-6 (normal cells), and HCT116^CLDN2 cells were treated with different concentrations of PDS-0330 and cell viability was determined.
# (§3) To this end, a library of molecules was synthesized in order to develop an initial SAR evaluation. The first compounds tested eliminated the acylated (thio) urea as well as the napthyl group and evaluated just the urea/phenyl compounds (Compounds 1-6). The methoxy group of the naphthalene ring system was needed when the benzimidazole group was present (16 vs. Compound 8). […] The result of metabolic stability was expressed as the percentage of drug remaining at each time. […] To further determine the effect of PDS-0330 on p-Src expression and association, cells were treated with Compound 1, 16 and PDS-0330. Expression and association with p-Src was unaffected with Compound 1 (negative control). The specificity of PDS-0330 for CLDN1 was further confirmed by treating SW480^CLDN1, HCT116^CLDN2 (overexpressing another tight junction protein) or normal IEC-6 cells with PDS-0330 (FIG. 12).
# [4] = tested on: IEC-6 (normal cells); assay: Cell viability, specificity for CLDN1; format: cell-based
# Experimental: as §2, §3
# [5] = tested on: SW480CLDN1 cells; assay: Cell viability, specificity for CLDN1; format: cell-based
# Experimental: as §2, §3
# [6] = tested on: SW480claudin-1 cells; assay: Cell survival (MTT assay) versus dasatinib; format: cell-based
# Experimental: Effects on (A) phosphorylation of Src and EphA2 and (B) cell survival (MTT assay) were determined. Significant changes are boxed.
# [7] = Phase I metabolism in human liver microsomes; format: in vitro ADME; conditions: 60 minutes, compared to 16
# Source text: The result of the metabolic stability study was expressed as the % drug conc. remaining.
# as §3, §1
# [8] = Blood urea nitrogen (BUN) toxicity measurement; parameters: species or system mice; conditions: mouse, in vivo
# Source text: Data are expressed as means±SEM (n=5 mice/group).
Compound,primary metabolites identified [1],"drug remaining ([1]; after 60 minutes, phase I and II metabolism) [%]",effect on HCT116 cells [2],effect on cell viability [3],effect on cell viability [4],percentage of dead cells [5],percent cell survival compared with dasatinib [6],metabolic stability [7],cytotoxic effect by blood urea nitrogen (BUN) [8]
COc1cc2ccccc2cc1C(=O)NC(=S)Nc1ccc(-c2nc3ccccc3[nH]2)cc1 [Compound 16],acetylation and hydroxylation with subsequent glucuronidation,30,remained unaffected,,,,,,
O=C(NC(=S)Nc1ccc(-c2nc3ccccc3o2)cc1)c1ccc2ccccc2c1 [PDS-0330],,,,not affected,not affected,significant increase in the percentage of dead cells,significantly decreased percent cell survival more than dasatinib; also recorded: more effective in inhibiting cell survival,metabolically stable over 60 minutes,no cytotoxic effect in mice
